# Assay results as given in US20130245081A1, “Compositions and Methods for Treating Amyotrophic Lateral Sclerosis” (priority 2009, published 2013).
# Read-outs that look alike come from different tables or passages of the source.
# Assays:
# patients with ALS = settings: for treatment failures (6-point or greater drop in ALSFRS-R total score): baseline to 12 weeks; for treatment failures (reduction in VC of 20% or greater): baseline to Week 12
# healthy adult subjects = system: healthy adult subjects
# Protocol: In both studies, safety was assessed by periodic measurement of vital signs, 12-lead ECGs, physical examinations, clinical laboratory parameters, and reports of adverse events. Baseline vital signs and changes from baseline were summarized with descriptive statistics by body position (supine or standing), dose level, and time point. Additionally, the number of subjects with substantial increases or decreases in blood pressure (>20 mmHg) and heart rate (>15 bpm) were tabulated by dose level and visit. The arithmetic mean of 3 readings of blood pressure and heart rate at each visit/position was used for the analysis. The shift from baseline for physical examination results was tabulated by body system, visit, and dose level. The overall ECG findings were summarized using a shift table comparing post-baseline visits to baseline. Laboratory parameters were summarized at each timepoint, including changes from baseline by dose level. In addition, abnormal values outside normal ranges were flagged. All safety data were summarized with descriptive statistics by dose group.
# In the first study, subjects remained in the clinic for 72 hours after dosing, during which time they were monitored for safety and tolerability, and later returned to the clinic for a brief follow-up visit 7 days post-dose for clinical and laboratory assessments. In the second study, end-of-treatment evaluations were performed on Day 9, approximately 48 hours after the final dose, and subjects were discharged from the clinic for an outpatient visit on Day 10 and a follow-up visit on Day 14.
compound,measurement,setting,value
"CCCN[C@@H]1CCc2nc(N)sc2C1 [dexpramipexole, (6R)-2-amino-4,5,6,7-tetrahydro-6-(propylamino)benzothiazole]",treatment failures (6-point or greater drop in ALSFRS-R total score),patients with ALS; 50 mg/day,35%
same,mean change from baseline to endpoint in ALSFRS-R total score,"patients with ALS; 50 mg, 12 weeks",−5.0
same,median change from baseline to endpoint in ALSFRS-R score,"patients with ALS; 50 mg, 12 weeks",−3.0
same,mean ALSFRS-R total score,"patients with ALS; 50 mg, Week 12 of Part 1",32.4
same,mean McGill SIS score,"patients with ALS; 50 mg, Week 12 of Part 1",6.3
same,mean upright VC,"patients with ALS; 50 mg, Week 12 of Part 1",82.5%
same,treatment failures (reduction in VC of 20% or greater),patients with ALS; 50 mg,13%
same,treatment failures (6-point or greater drop in ALSFRS-R total score),patients with ALS; 150 mg/day,15%
same,mean change from baseline to endpoint in ALSFRS-R total score,"patients with ALS; 150 mg, 12 weeks",−3.3
same,median change from baseline to endpoint in ALSFRS-R score,"patients with ALS; 150 mg, 12 weeks",−2.5
same,mean ALSFRS-R total score,"patients with ALS; 150 mg, Week 12 of Part 1",35.8
same,mean upright VC,"patients with ALS; 150 mg, Week 12 of Part 1",82.3%
same,treatment failures (reduction in VC of 20% or greater),patients with ALS; 150 mg,12%
same,treatment failures (6-point or greater drop in ALSFRS-R total score),patients with ALS; 300 mg/day,8%
same,mean fine motor domain change of ALSFRS-R (mean±SEM),"patients with ALS; 300 mg/day, study endpoint",−0.6±0.24
same,mean change from baseline to endpoint in ALSFRS-R total score,"patients with ALS; 300 mg, 12 weeks",−2.2
same,median change from baseline to endpoint in ALSFRS-R score,"patients with ALS; 300 mg, 12 weeks",−2.0
same,reduction of mean ALSFRS-R decline compared with placebo,"patients with ALS; 300 mg, 12 weeks",39%
same,reduction of median ALSFRS-R decline compared with placebo,"patients with ALS; 300 mg, 12 weeks",50%
same,slope of ALSFRS-R scores (linear mixed-effects),"patients with ALS; 300 mg, Part 1",−0.878
same,mean ALSFRS-R total score,"patients with ALS; 300 mg, Week 12 of Part 1",36.2
same,mean McGill SIS score,"patients with ALS; 300 mg, Week 12 of Part 1",7.3
same,mean upright VC,"patients with ALS; 300 mg, Week 12 of Part 1",82.1%
same,median upright VC,"patients with ALS; 300 mg, Week 12 of Part 1",91.2%
same,treatment failures (reduction in VC of 20% or greater),patients with ALS; 300 mg,4%
same,reduction in handwriting score (FIG. 4A),patients with ALS; daily doses of 30 mg (so in the source),almost no reduction
same,"drug effect on vital signs, physical examinations, ECG, hematology and urinalysis",healthy adult subjects; either study,no evidence
same,serious adverse events or adverse events that led to early discontinuation,healthy adult subjects; either study,No serious adverse events
same,subjects reporting dizziness,healthy adult subjects; first study,3 subjects
same,subjects reporting headache,healthy adult subjects; second study,5 subjects
same,safety and tolerability,"healthy adult subjects; single doses up to 300 mg, multiple doses up to 150 mg twice daily for 4½ days",safe and well tolerated
